{"source": "patent US20240082414A1", "about": "“HUMAN TUMOR NECROSIS FACTOR ALPHA ANTIBODY GLUCOCORTICOID CONJUGATES” (Eli Lilly and Company, priority 2022, published 2024)", "system": "anti-drug antibodies against adalimumab", "experiment": "ACE-Bridge binding to cynomolgus monkey anti-drug antibodies against adalimumab", "settings": "FIG. 3; AP-HIMS from monkeys hyperimmunized with adalimumab; bridging with the labeled test antibody", "protocol": "Example 5a. […] The anti-adalimumab antibodies were detected using a titration of AP-HIMS in an ACE-Bridge assay. The assay was developed following the FDA Guidance on Immunogenicity testing. […] The following day, plates were washed three times with TBST and the captured anti-adalimumab antibodies were acid eluted using 65 μL/well of 300 mM acetic acid (Fisher Scientific, A38-500) for 5 min at room temperature. […] Next, 50 μL of the acid eluted samples were added to the polypropylene plate containing the mixture in neutralizing buffer and the ADA and were allowed to bridge to the labeled antibodies for 1 h at room temperature. MSD Gold 96-well streptavidin plates (Mesoscale, L15SA-1) were washed and blocked with TBS+1% BSA for 1 h at room temperature, then washed, and 80 μL of bridged samples were added to the plate for 1 h. The plates were washed three times with TBST, and 150 μL/well of 2×MSD Buffer (Mesoscale, R92TC-2) was added to the plates. Plates were read on an MSD SQ120 reader to provide the Tier 1 signal expressed as electro chemiluminescent units (ECLU).\nThe resulting ECLU signal was then plotted as a function of the concentration of AP-HIMS tested.", "data": [{"substance": "adalimumab: other anti-TNFα therapeutic antibody [reference compound]", "values": [{"measurement": "maximum ECLU signal", "result": 40000, "unit": "ECLU"}]}]}
